Data taken from patent US20060252807A1, “Novel ortho-terphenyl inhibitors of p38 kinase and methods of treating inflammatory disorders” (Kalypsys, Inc., priority 2005, published 2006).

Molecular target: T1, active p38 alpha enzyme (Upstate Biotechnology) (Homo sapiens, UniProt Q16539)
T1 construct: purchased Upstate Biotechnology
Assay: p38α biochemical assay (ATP turnover, luminescent detection, Cambrex PKlight)
Conditions: p38α biochemical assay, Table 1 Biological Activity
In short: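 Measures total ATP turnover by luminescence after human p38α phosphorylates full MapkapK2 protein. Final ATP is 1.4 uM, and incubation runs 2 hours at 30C. The buffer includes 100 mM MgCl2, 4 mM CaCl2 and 1 mg/ml BSA.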

T1 sequence (Q16539 whole entry): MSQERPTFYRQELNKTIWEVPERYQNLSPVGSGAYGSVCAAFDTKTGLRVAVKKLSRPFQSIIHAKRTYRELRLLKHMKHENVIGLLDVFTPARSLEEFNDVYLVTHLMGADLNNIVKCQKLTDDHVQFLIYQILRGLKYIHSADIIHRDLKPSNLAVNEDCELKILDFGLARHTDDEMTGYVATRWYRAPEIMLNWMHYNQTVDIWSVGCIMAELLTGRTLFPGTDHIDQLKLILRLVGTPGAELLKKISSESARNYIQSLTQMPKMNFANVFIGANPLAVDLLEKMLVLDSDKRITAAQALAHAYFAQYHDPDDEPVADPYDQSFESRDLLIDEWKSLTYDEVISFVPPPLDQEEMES

Compound	IC50 [µM]
COc1cc(OC)cc(C(=O)N2CCN(Cc3nc(-c4ccc(F)cc4)c(-c4nc(C(=O)NC(C)C)cs4)o3)CC2)c1 [Example 464]	> 1
CC(C)NC(=O)c1csc(-c2oc(CN3CCN(C(=O)c4ccccc4C(=O)c4ccc(O)cc4)CC3)nc2-c2ccc(F)cc2)n1 [Example 559]	> 1
CC(C)NC(=O)c1csc(-c2oc(CNC(=O)c3cc(O)ccc3[N+](=O)[O-])nc2-c2ccc(F)cc2)n1 [Example 233]	≤ 1
CCCOc1ccc(C(=O)N2CCN(Cc3nc(-c4ccc(F)cc4)c(-c4nc(C(=O)NC(C)C)cs4)o3)CC2)cc1 [Example 455]	> 1
CC(C)NC(=O)c1csc(-c2oc(CN3CCN(C(=O)Cc4c(F)cccc4F)CC3)nc2-c2ccc(F)cc2)n1 [Example 430]	> 1
CC(C)NC(=O)c1csc(-c2oc(CN3CCN(C(=O)c4cc(F)c(F)c(O)c4F)CC3)nc2-c2ccc(F)cc2)n1 [Example 491]	> 1
CCCCCCCC(=O)NCc1nc(-c2ccc(F)cc2)c(-c2nc(C(=O)NC(C)C)cs2)o1 [Example 128]	≤ 1
CC(C)NC(=O)c1csc(-c2oc(CN3CCN(C(=O)c4ccc(Cl)nc4)CC3)nc2-c2ccc(F)cc2)n1 [Example 389]	> 1
CC(C)NC(=O)c1csc(-c2oc(CNC(=O)C(C)NC(=O)OC(C)(C)C)nc2-c2ccc(F)cc2)n1 (centres unmarked) [Example 247]	> 1
CC(C)NC(=O)c1csc(-c2oc(CN3CCN(C(=O)CCc4ccccc4O)CC3)nc2-c2ccc(F)cc2)n1 [Example 418]	≤ 1
CC(C)NC(=O)c1csc(-c2oc(CN3CCN(C(=O)c4cc(Cl)ccc4O)CC3)nc2-c2ccc(F)cc2)n1 [Example 433]	≤ 1
CC(C)NC(=O)c1csc(-c2c(-c3ccc(F)cc3)noc2CNC(=O)c2ccc(F)cc2F)n1 [Example 634]	> 1
Cc1nc(-c2ccc(F)cc2)c(-c2nc(C(=O)NCc3ccncc3)cs2)s1 [Example 57, 4′-(4-Fluoro-phenyl)-2′-methyl-|2,5′|bithiazolyl-4-carboxylic acid (pyridin-4-ylmethyl)-amide]	≤ 1
CC(C)NC(=O)c1csc(-c2[nH]c(CN3CCOCC3)nc2-c2ccc(F)cc2)n1 [Example 80, 2-|5-(4-Fluoro-phenyl)-2-morpholin-4-ylmethyl-3H-imidazol-4-yl|-thiazole-4-carboxylic acid isopropylamide]	≤ 1
COC(=O)c1ccc(C(=O)NCc2nc(-c3ccc(F)cc3)c(-c3nc(C(=O)NC(C)C)cs3)o2)cc1 [Example 214]	> 1

Same assay, conditions: p38α kinase; Table 1 Biological Activity

Compound	IC50 [µM]
CCN(Cc1onc(-c2ccc(F)cc2)c1-c1nc(C(=O)NC(C)C)cs1)C(C)C [Example 1518]	> 1
Cc1nc(-c2ccc(F)cc2)c(-c2nc(C(=O)NCc3cc(F)cc(F)c3)cs2)s1 [Example 1791]	≤ 1
CC(C)NC(=O)c1csc(-c2c(-c3ccc(F)cc3)noc2CNC(=O)C(C)c2cccc(C(=O)c3ccccc3)c2)n1 (centres unmarked) [Example 805]	> 1
Cc1nc(-c2ccc(F)cc2)c(-c2nc(C(=O)NCc3ccc(F)c(F)c3)cs2)s1 [Example 1790]	≤ 1
CC(C)NC(=O)c1csc(-c2oc(CN(C)CCc3ccccn3)nc2-c2ccc(F)cc2)n1 [Example 1228]	> 1
CC(C)NC(=O)c1csc(-c2oc(CNCCCCO)nc2-c2ccc(F)cc2)n1 [Example 1075]	> 1
COc1ccc(CNCc2nc(-c3ccc(F)cc3)c(-c3nc(C(=O)NC(C)C)cs3)o2)cc1 [Example 1125]	> 1
CC(C)NC(=O)c1csc(-c2oc(CN3CCN(c4ccccc4Cl)CC3)nc2-c2ccc(F)cc2)n1 [Example 1301]	> 1
Cc1ccc(O)c(C(=O)N2CCC(c3[nH]nc(-c4ccc(F)cc4)c3-c3nc(C(=O)NC(C)C)cs3)CC2)c1 [Example 859]	> 1
Cc1nc(-c2ccc(F)cc2)c(-c2nc(C(=O)NCCN(C(C)C)C(C)C)cs2)s1 [Example 1793]	> 1
CC(C)NC(=O)c1csc(-c2oc(CNC3CC3)nc2-c2ccc(F)cc2)n1 [Example 1053]	> 1
CC(C)NC(=O)c1csc(-c2oc(CNc3ccc4c(c3)OCCO4)nc2-c2ccc(F)cc2)n1 [Example 1353]	> 1
Cc1nc(-c2ccc(F)cc2)c(-c2nc(C(=O)NCCCc3ccccc3)cs2)s1 [Example 1774]	> 1
Cc1nc(-c2ccc(F)cc2)c(-c2nc(C(=O)N(C)CCO)cs2)s1 [Example 1839]	> 1
CC(C)NC(=O)c1csc(-c2c(-c3ccc(F)cc3)n[nH]c2C2CCN(C(=O)c3ccc(F)cc3F)CC2)n1 [Example 873]	> 1
CC(C)NC(=O)c1csc(-c2c(-c3ccc(F)cc3)n[nH]c2C2CCN(C(=O)c3ccc(C(C)(C)C)cc3)CC2)n1 [Example 923]	≤ 1
CC(C)NC(=O)c1csc(-c2oc(CNCCc3ccc4c(c3)OCO4)nc2-c2ccc(F)cc2)n1 [Example 1178]	> 1
Cc1ccc(C)c(C(=O)N2CCC(c3[nH]nc(-c4ccc(F)cc4)c3-c3nc(C(=O)NC(C)C)cs3)CC2)c1 [Example 851]	> 1

Compound	IC50 [µM]
CCOC(=O)CC(C)NC(=O)c1csc(-c2sc(C)nc2-c2ccc(F)cc2)n1 (centres unmarked) [Example 1766]	≤ 1
Cc1nc(-c2ccc(F)cc2)c(-c2nc(C(=O)NC3CCCc4ccccc43)cs2)s1 (centres unmarked) [Example 1701]	> 1
Cc1nc(-c2ccc(F)cc2)c(-c2nc(C(=O)NCC(C)c3ccccc3)cs2)s1 (centres unmarked) [Example 1773]	> 1
CC(C)NC(=O)c1csc(-c2c(-c3ccc(F)cc3)noc2CNCC2CCCO2)n1 (centres unmarked) [Example 1409]	> 1
COc1cc(C(=O)N2CCC(c3[nH]nc(-c4ccc(F)cc4)c3-c3nc(C(=O)NC(C)C)cs3)CC2)cc(OC)c1O [Example 980]	> 1
CCN(CCO)Cc1nc(-c2ccc(F)cc2)c(-c2nc(C(=O)NC(C)C)cs2)o1 [Example 1195]	> 1
COc1cc(C(=O)N2CCC(c3[nH]nc(-c4ccc(F)cc4)c3-c3nc(C(=O)NC(C)C)cs3)CC2)cc(Cl)n1 [Example 955]	> 1
CCN(CCO)Cc1onc(-c2ccc(F)cc2)c1-c1nc(C(=O)NC(C)C)cs1 [Example 1520]	> 1
Cc1nc(-c2ccc(F)cc2)c(-c2nc(C(=O)N(CCC#N)Cc3cccnc3)cs2)s1 [Example 1891]	> 1
CC(C)NC(=O)c1csc(-c2oc(CNCc3ccc(C(F)(F)F)cc3)nc2-c2ccc(F)cc2)n1 [Example 1166]	> 1
CC(C)NC(=O)c1csc(-c2c(-c3ccc(F)cc3)noc2CNc2c(C(C)C)cccc2C(C)C)n1 [Example 1687]	> 1
COc1ccc(C(=O)CNCc2nc(-c3ccc(F)cc3)c(-c3nc(C(=O)NC(C)C)cs3)o2)cc1 [Example 1177]	> 1
O=C(NC1CCN(Cc2ccccc2)CC1)c1csc(-c2c(-c3ccc(F)cc3)n[nH]c2C2CCNCC2)n1 [Example 2151]	> 1
CC(C)NC(=O)c1csc(-c2c(-c3ccc(F)cc3)noc2CNCc2ccc(C(F)(F)F)cc2)n1 [Example 1493]	> 1
CCN(Cc1ccccc1)Cc1onc(-c2ccc(F)cc2)c1-c1nc(C(=O)NC(C)C)cs1 [Example 1550]	> 1
CC(C)NC(=O)c1csc(-c2oc(CNCCC3CCCN3C)nc2-c2ccc(F)cc2)n1 (centres unmarked) [Example 1107]	> 1
CCN(CCCCO)C(=O)c1csc(-c2sc(C)nc2-c2ccc(F)cc2)n1 [Example 1865]	> 1
